According to patent US20170275330A1, “POLYMORPHIC FORMS OF AN OXYSTEROL AND METHODS OF MAKING THEM” (Warsaw Orthopedic, Inc., priority 2016, published 2017):
≈ marks a conversion by molar mass, not a printed value.

Experiments:
[1] = for stability in the acetone/water solvent system: acetone/water slurry
[2] = Karl-Fisher (KF) water determination of isolated solid; format: physicochemical; conditions: for KF (water content determined by Karl Fischer water determination method): OXY133 sample, method/solvent system, processing point, temperature and time as in the table row; for KF (Wt %) water content of isolated solid: solid isolated from acetone/water slurry at 0, 10 or 25° C.
Description: Further, Table 8 below is a list of OXY133 polymorphs Forms A, B, C, D, E, F, G, H and I identified by a high performance liquid chromatography (HPLC) followed by charged aerosol detector (CAD) method. Table 4 also lists the starting products, the solvent system including solvent and anti-solvent, the temperature at which a polymorph was formed, the water content of the polymorph as determined by the Karl-Fisher (KF) method of water determination, and where available the yield and purity of the resulting polymorph.

[3] = X-ray powder diffraction (XRPD) identification of the crystal form; format: physicochemical; conditions: OXY133 sample, method/solvent system
Description: The many crystalline forms obtained by subjecting a slurry of OXY133 to different conditions of re-slurrying, recrystallizing from different solvent systems at different temperatures may be identified by many analytical methods, for example, XRPD, HPLC-CAD, DSC-TGA and others known in the art. In certain embodiments, the OXY133 polymorphs may be characterized, at least in part, by X-ray Powder Diffraction (XRPD). In particular, crystalline solids produce a distinctive diffraction pattern of peaks, represented in what is referred to as a diffractogram. The peak assignments for a given crystalline material, for example, degree 2θ values, may vary slightly, depending on the instrumentation used to obtain the diffractogram and certain other factors, for example, sample preparation. Nevertheless, these variations should not be more than +/−0.2 degrees 2θ and the relative spacing between the peaks in the diffractogram will always be the same, regardless of the instrumentation used or the method of sample preparation, and the like.
The equipment utilized to collect the XRPD patterns depicted in FIGS. 2A-13B was a Bruker D8 Advance diffractometer using Cu radiation (40 kV, 25 mA) with a divergence slit of 0.3° (0.6 mm), wherein variable slits must be operated in fixed mode. The axial Soller slits, primary and secondary were each set at 2.5°. The anti-scatter slit was set at 0.3° (0.6 mm). The secondary monochromator anti-scatter slit was set at 1 mm and the detector slit at 0.1 mm. If a secondary monochromator is not used, then a suitable […] must be used, namely a Ni filter for Cu radiation. The linear detector LYNXEYE was set at 30 detector opening with the angle scanned from 2 to 45° 2Θ.

[4] = Stability of the crystal form on drying in a vacuum oven; format: physicochemical; conditions: drying at temperatures above about 20° C. to about 30° C.
Protocol: 2.0 g anhydrous OXY133 was added to 10 mL isopropanol in a 100 mL polyblock reactor. The mixture was heated to 30° C. and then stirred at 30° C. for 45 minutes until the solids were dissolved completely. Acceptable heating temperatures ranged from 25° C. to 35° C. A polish filtration step can be added after dissolving the anhydrous OXY133. The mixture of anhydrous OXY133 and isopropanol was then cooled to 5° C. 20 mL of water was then added to the cooled mixture over 120 minutes at 5° C., resulting in the formation of a precipitate approximately one third of the way through the addition of water. The water addition can also be done in temperature ranges from about 0° C. to about 20° C. with no significant effect on the crystal structure. The resulting mixture of OXY133, isopropanol and water was then stirred at 5° C. for 18 hours. However, it is recommended that the resulting mixture could be mixed for at least 2 hours at 5° C. after the water addition was complete to ensure that all solids were precipitated from the solution. A white solid was collected by rapidly filtering the mixture and then washing the solid with 2.0 mL of an isopropanol:water mixture in a ratio of 1:2 v/v. The filtered and washed solids were then dried in a vacuum oven at 20′C. Acceptable temperatures for drying can range from about 20° C. to about 30′C.

[5] = DSC/TGA (differential scanning calorimetry and thermo-gravimetric analysis); format: physicochemical; conditions: isolated solid of Example 6
Protocol: Differential scanning calorimetry (DSC) and thermo-gravimetric analysis (TGA) were also collected for some of the OXY133 polymorphs. The equipment utilized to collect the DSC/TGA data was a Mettler Toledo DSC 2 equipped with an aluminum 40 μL crimped pan with a pin hole and the ramp rate was 10° C./min. DSC/TGA thermograms identifying several OXY133 polymorphs are illustrated in FIGS. 20-25.

physchem = conditions: acetone, organic solvent or mixture, thermodynamic from solid
[6] = Solubility of OXY133 Form B in organic solvents; conditions: ambient temperature of about 20° C.
[7] = Table 8, processing point (slurry/solid/after drying), temperature and time as in the table row
[8] = Table 9, processing point, temperature

Structure (SMILES)	KF (water content determined by Karl Fischer water determination method) [2]	KF (Wt %) water content of isolated solid [2]	Crystal Form (XRPD) [3, 7]	Crystal Form (XRPD) [3, 8]	other results
CCCCCC[C@](C)(O)[C@H]1CC[C@H]2[C@@H]3C[C@H](O)[C@H]4C[C@@H](O)CC[C@]4(C)[C@H]3CC[C@@]21C [Form C]					stability in the acetone/water solvent system [1]: fairly stable; conversion from Form C to Form A or Form B ([1]; slurry stirred at about 20° C. in acetone/water): no conversion
CCCCCC[C@](C)(O)[C@H]1CC[C@H]2[C@@H]3C[C@H](O)[C@H]4C[C@@H](O)CC[C@]4(C)[C@H]3CC[C@@]21C [Form 2891-8-3]	3.25%	3.25 Wt %	Form A	Form A	
CCCCCC[C@](C)(O)[C@H]1CC[C@H]2[C@@H]3C[C@H](O)[C@H]4C[C@@H](O)CC[C@]4(C)[C@H]3CC[C@@]21C [Form 2891-10-3]	4.02%	4.02 Wt %	Form A	Form A	
CCCCCC[C@](C)(O)[C@H]1CC[C@H]2[C@@H]3C[C@H](O)[C@H]4C[C@@H](O)CC[C@]4(C)[C@H]3CC[C@@]21C [Form F]					stability in the acetone/water solvent system [1]: somewhat stable; conversion to any other polymorph forms ([1]; acetone/water system, stirred at about 20° C. or about 5° C.): would not convert
CCCCCC[C@](C)(O)[C@H]1CC[C@H]2[C@@H]3C[C@H](O)[C@H]4C[C@@H](O)CC[C@]4(C)[C@H]3CC[C@@]21C [Form 2891-9-3]	3.83%	3.83 Wt %	Form A	Form A	
CCCCCC[C@](C)(O)[C@H]1CC[C@H]2[C@@H]3C[C@H](O)[C@H]4C[C@@H](O)CC[C@]4(C)[C@H]3CC[C@@]21C.O [OXY133 Monohydrate, (3S,5S,6S,8R,9S,10R,13S,14S,17S)-17-((S)-2-hydroxyoctan-2-yl)-10,13-dimethylhexadecahydro-1H-cyclopenta[a]phenanthrene-3,6-diol, monohydrate]					crystal form stability on drying [4]: slow conversion; KF water content ([2]; isolated solid of Example 6 (IPA/water 1:2, 5° C., dried at 20° C.)): 4.07%; DSC/TGA [5]: 4.76%
CCCCCC[C@](C)(O)[C@H]1CC[C@H]2[C@@H]3C[C@H](O)[C@H]4C[C@@H](O)CC[C@]4(C)[C@H]3CC[C@@]21C [Form B]					solubility (physchem; 20 °C): ~10 mg/mL (≈ 23.8 mM); solubility (physchem; 56 °C): ~80 mg/mL (≈ 190 mM); solubility in isopropanol (IPA) ([6]; isopropanol): good; solubility in tetrahydrofuran ([6]; tetrahydrofuran): good
